Assay results taken from patent US20130324522A1, “INSECT ODORANT RECEPTOR ANTAGONISTS” (THE ROCKEFELLER UNIVERSITY, priority 2010, published 2013).

Target: T1, serotonin receptor (5HT3) (Mus musculus, UniProt P23979)
T1 construct: Full-length cDNAs for mosquito (Anopheles gambiae) odorant receptor; expressed in transfected cells
T1 sequence (P23979 24-489): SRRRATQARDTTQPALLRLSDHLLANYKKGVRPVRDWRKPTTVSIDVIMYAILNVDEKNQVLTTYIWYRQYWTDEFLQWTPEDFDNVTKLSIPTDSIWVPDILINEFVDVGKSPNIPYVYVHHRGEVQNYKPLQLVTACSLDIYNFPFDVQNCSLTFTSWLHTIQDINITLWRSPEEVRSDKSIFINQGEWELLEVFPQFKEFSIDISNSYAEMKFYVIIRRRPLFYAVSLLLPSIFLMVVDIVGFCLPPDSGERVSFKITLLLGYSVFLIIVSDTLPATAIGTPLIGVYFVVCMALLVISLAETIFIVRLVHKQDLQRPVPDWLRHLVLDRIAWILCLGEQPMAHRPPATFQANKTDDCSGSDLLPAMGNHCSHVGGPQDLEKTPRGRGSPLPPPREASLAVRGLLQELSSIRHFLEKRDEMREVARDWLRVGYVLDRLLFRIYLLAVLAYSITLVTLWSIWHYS
Test: Ca2+-imaging of stable Flip-In T-Rex cell line 5HT3
Assay type: cell-based
Conditions: Table B; read-out: IC50 5HT3
In short: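 Calcium responses were read on an FDSS6000 (485 nm excitation, 525 nm emission) after Ca-4 loading for 1.5 h at room temperature. Cells were tetracycline-induced Flp-In T-REx lines stably carrying fly Or47a/Or83b or mouse 5HT3, plated 2 days ahead; compounds were co-delivered in HBSS odorant solution.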

COc1ccccc1N1CCN(C(=O)c2cc3n(n2)CCN(Cc2c(F)cccc2Cl)C3=O)CC1 [RU-0043595] and CN(Cc1ccccc1)C(=O)CCC1CCN(C(=O)CCOc2ccccc2)CC1 [RU-0028727] cannot be ordered by IC50: > 1 µM for the first, > 1 µM for the second.

For COCCCN(CC(=O)N1CCc2sccc2C1c1ccc(OC)cc1)C(=O)C(C)(C)CCl (stereo not drawn) [RU-0069950], the IC50 was > 1 µM.

Same assay, conditions: compound applied at 4 μM; read-out: Percent Inhibition 5HT3

First: Cc1cc(C)c2c(c1C(=O)N1CCC3(CC1)C(=O)NCN3c1ccccc1)CC(C)(C)C2=O [RU-0025771]
Second: Cc1ccc(-n2nc(C)c(CCC(=O)N3CCc4ccccc4C3)c2C)cc1Cl [RU-0026074]
The inhibition at 4 µM of the first is higher: 26 to 50% for the first, < 25% for the second.

First: C=C[C@@](C)(O)CCC1C(=C)CCC2[C@@](C)(CO)CCC[C@]12C (stereo partly drawn) [RU-0001327]
Second: Cc1ccc(CN(Cc2ccc(F)cc2)C(=O)CN(C(=O)NC(C)(C)C)C2CC2)s1 [RU-0052360]
The inhibition at 4 µM of the first is higher: 26 to 50% for the first, < 25% for the second.

First: COc1cc(OC)cc(C2NC(=O)N(C)C3=C2C(=O)N(C2CCCCC2)C3)c1 (stereo not drawn) [RU-0047750]
Second: COc1ccccc1N1CCN(C(=O)c2cc3n(n2)CCN(Cc2c(F)cccc2Cl)C3=O)CC1 [RU-0043595]
The inhibition at 4 µM of the first is lower: 26 to 50% for the first, 51 to 74% for the second.

First: COc1ccc(N2CCN(C(=O)C3CC=CCC3C(=O)NC(c3ccccc3)c3ccccn3)CC2)cc1 (stereo not drawn) [RU-0026507]
Second: COc1ccc(N2CCN(C(=O)C3CC=CCC3C(=O)NCCCCc3ccccc3)CC2)cc1 (stereo not drawn) [RU-0026167]
The inhibition at 4 µM of the first is higher: 26 to 50% for the first, < 25% for the second.

COCCNC(=O)c1ccc(CSc2nnc(-c3ccc(C)cc3)n2-c2ccccc2F)cc1 [RU-0051652] and COc1ccc(-c2nnc(SCc3ccc(C#N)cc3)n2-c2ccc(C)cc2)cc1 [RU-0046426] fall in the same range of inhibition at 4 µM: 26 to 50% for the first, 26 to 50% for the second.

COc1ccc(C(=O)c2ccccc2)c(O)c1O [RU-0001617] and CCOc1ccccc1C(=O)NNC(=O)COc1cc(C)cc(C)c1 [RU-0023245] fall in the same range of inhibition at 4 µM: 26 to 50% for the first, 26 to 50% for the second.

COc1nc(OCC#N)nc(N2CCCCC2)n1 [RU-0006256] and COc1nc(NC(C)C)nc(NC(C)C)n1 [RU-0001534] fall in the same range of inhibition at 4 µM: 26 to 50% for the first, 26 to 50% for the second.

CCOC(=O)C(c1cccc(OC)c1)C1C=CC(NC(=O)c2cccs2)C1 (stereo not drawn) [RU-0074560] and CCOC(=O)C(c1ccc(OC)c(OC)c1)C1C=CC(NC(=O)c2ccc3c(c2)OCO3)C1 (stereo not drawn) [RU-0049030] cannot be ordered by inhibition at 4 µM: < 25% for the first, < 25% for the second.

Compared with CN(C)c1nc(N(C)C)nc(N(C)C)n1 [RU-0000619], Cc1ccc(CN(CCc2ccccc2)C(=O)CN(C(=O)NC(C)(C)C)C(C)C)o1 [RU-0072008] is lower in inhibition at 4 µM: 26 to 50% for the first, < 25% for the second.

COCCCN(CC(=O)N1CCc2sccc2C1COc1cccc(OC)c1)C(=O)Cc1ccccc1 (stereo not drawn) [RU-0036264] and COCCCN(CC(=O)N1CCc2sccc2C1COc1cccc(OC)c1)C(=O)c1ccccc1OC (stereo not drawn) [RU-0036294] cannot be ordered by inhibition at 4 µM: < 25% for the first, < 25% for the second.

First: CC(NCc1ccccc1)c1nc2ccccc2c(=O)n1-c1ccc(Cl)cc1 (stereo not drawn) [RU-0072535]
Second: COC(=O)C(Cc1ccccc1)NC(=O)C1CC1(c1ccccc1)c1ccccc1 (stereo not drawn) [RU-0028029]
The inhibition at 4 µM of the first is lower: < 25% for the first, 26 to 50% for the second.

CN(Cc1ccccc1)C(=O)CCC1CCN(C(=O)CCOc2ccccc2)CC1 [RU-0028727] and COCCCN(CC(=O)N1CCc2sccc2C1c1ccc(OC)cc1)C(=O)C(C)(C)CCl (stereo not drawn) [RU-0069950] fall in the same range of inhibition at 4 µM: 51 to 74% for the first, 51 to 74% for the second.

First: COCCN(Cc1cc(Cl)ccc1OS(=O)(=O)c1ccc(F)cc1)C(=O)C1CCC1 [RU-0035287]
Second: CC(NC(=O)c1cc2n(n1)CCN(Cc1c(Cl)cccc1Cl)C2=O)c1ccccc1 (stereo not drawn) [RU-0045115]
The inhibition at 4 µM of the first is higher: 26 to 50% for the first, < 25% for the second.

First: O=C1CN(S(=O)(=O)c2c(F)cc(F)cc2F)CC2c3cccc(F)c3CCN12 (stereo not drawn) [RU-0076832]
Second: CCCCc1nc(CN2CCc3c([nH]c4ccccc34)C2c2cccc(OC)c2OC)c[nH]1 (stereo not drawn) [RU-0031879]
The inhibition at 4 µM of the first is higher: 26 to 50% for the first, < 25% for the second.

CCOCCCN(CC(=O)N(Cc1ccc2c(c1)OCO2)Cc1sccc1C)C(=O)NC(C)(C)C [RU-0052340] and CCN(CC)C(=O)Oc1ccc2c(ccn2Cc2cccc(C)c2)c1NC(=O)[C@H](C)OC(C)=O [RU-0075468] cannot be ordered by inhibition at 4 µM: < 25% for the first, < 25% for the second.
